# Data published in US10752593B2, “Compounds for use as therapeutically active substances in the treatment of retinal diseases” (ENDOGENA THERAPEUTICS, INC., priority 2018, dated 2020).
# Test system: retinal precursor cells
# Assay: Sphere passaging and high-throughput drug screening: proliferation of retinal precursor cells within one week
# Assay type: cell-based, mammalian
# Details: for Cell proliferation within one week [%]: retinal precursor cells grown one week with compound in 0.1% DMSO, control without compound = 100; for increase of cell proliferation within one week: increase over control, retinal precursor cells
# Description: Kynurenic Acid (0.2 mg/mL), trypsin (1.33 mg/mL), and hyaluronidase (0.67 mg/mL) were weighed out and dissolved in high magnesium/low calcium artificial cerebral spinal fluid (aCSF) at 37° C. Fibroblast growth factor 2 (FGF2; 10 ng/mL) and heparin (2 μg/mL) were added to 100 mL of serum-free media (SFM). Ovomucoid trypsin inhibitor (1 mg/mL) was dissolved in warm SFM and sterile filtered ([…]).
# A dissecting microscope, cold light source, and sterile surgical instruments were set up inside of a sterile biological safety cabinet (BSC). Mammalian eyes were enucleated and placed in a petri dish containing cold, sterile aCSF. Under the dissecting microscope, hair, connective tissue, and the dorsal and ventral oblique muscles were cleared from the scleral/corneal border with two sets of forceps. Next, curved or angled micro-dissecting scissors were used to cleave any remaining extraocular muscle tissue, the optic nerve, and cut the eyeball into symmetrical halves; beginning and finishing the cut from the hole left by the optic nerve. Using two sets of forceps to grasp the cornea, the two eye halves were peeled apart. The lens, optic nerve, and vitreous were separated from the eye shells and the eye shells were transferred into a new petri dish (also containing cold, sterile aCSF). To isolate the ciliary epithelium (CE), eye shells were oriented with the cornea on the right and retinal pigmented epithelium (RPE) on the left. A pair of straight forceps were used to pin down the eye shell on the RPE side while a scalpel blade was inserted between the CE and the iris, using pressure to slice the iris/cornea side off from the rest of the shell. Next, the scalpel was run along the border between the CE and the RPE to obtain the CE isolated as a thin strip of tissue. The CE strips were then transferred to a 35 mm dish containing 2 mL of dispase solution (Sigma; T1005) and incubated for 10 minutes at 37° C. Next, the strips were transferred from dispase into a 35 mm dish containing 2 mL of sterile filtered kynurenic acid, trypsin and hyaluronidase solution and incubated at 37° C. for 10 minutes. After incubation, the dish was returned to the dissecting scope, and the CE strips were pinned down with straight, non-serrated forceps, while non-serrated curved forceps were used to scrape the CE off from the underlying sclera. The bare scleral strips were then discarded, such that only the CE cells remained in the enzyme solution. Using a fire-polished, cotton-plugged glass pipette, the cells and enzyme solution were transferred to a 15 mL tube and triturated approximately 45 times to break apart the tissue. The 15 mL tube/cell suspension was centrifuged for 5 minutes at 1500 rpm. The supernatant was gently aspirated from the resulting pellet using a fire-polished, cotton-plugged glass pipette and 2 mL of trypsin inhibitor solution was added to the pellet. Using a small borehole, fire-polished, cotton-plugged glass pipette, the sample was triturated approximately 45 times until it was a single-cell suspension. The 15 mL tube/cell suspension was centrifuged for 5 minutes at 1500 rpm. The supernatant was gently aspirated from the resulting pellet and 1-2 mL of SFM with FGF2 and heparin (plating media) was added. The cells and media were mixed to ensure a uniform cell suspension and a 10 uL sample was taken and cell density was determined. The cells were then seeded and cultured at 10c/μL in culture-treated plates or flasks. After one week, roughly 1 in 500 cells proliferated to form free-floating, clonal spheres greater than 80 μm in diameter.
# Human-derived spheres were passaged using the kynurenic acid, trypsin, hyaluronidase enzyme solution with the addition of collagenase I (0.5 mg/mL), collagenase II (0.5 mg/mL) and elastase (0.1 mg/mL). Mouse-derived spheres were passaged using hyaluronidase (0.67 mg/mL), collagenase I (0.5 mg/mL), and collagenase II (0.5 mg/mL) dissolved in Accustase solution (Sigma; SCR005). […]
# [1] = results table after the methods
Structure (SMILES),Cell proliferation within one week [%] [1] [%],Cell proliferation within one week [%] (concentration not given),increase of cell proliferation within one week [%]
"COc1cccc(CC(=O)Nc2ccc(-c3ccncc3)cc2)c1 [Compound E1078, 2-(3-methoxyphenyl)-N-(4-(pyridin-4-yl)phenyl)acetamide]",136,–,–
"O=C(Cc1cccc(C(F)(F)F)c1)Nc1ccc(-c2cnco2)c(F)c1 [Compound E1048, N-(3-fluoro-4-(oxazol-5-yl)phenyl)-2-(3-(trifluoromethyl)phenyl)acetamide]",105,105,–
"COc1cc(NC(=O)Cc2ccc(F)cc2F)ccc1-c1ccncc1 [Compound E1069, 2-(2,4-difluorophenyl)-N-(3-methoxy-4-(pyridin-4-yl)phenyl) acetamide]",106,–,–
"COc1cccc(CC(=O)Nc2ccc(-c3cnco3)c(F)c2)c1 [Compound E1042, N-(3-fluoro-4-(oxazol-5-yl)phenyl)-2-(3-methoxyphenyl)acetamide]",127,127,–
"COc1cccc(CC(=O)Nc2ccc(-c3cnco3)c(Cl)c2)c1 [Compound E0146, N-(3-chloro-4-(oxazol-5-yl)phenyl)-2-(3-methoxyphenyl)acetamide]",203,203,103
"COc1ccccc1CC(=O)Nc1ccc(-c2ccncc2)c(OC)c1 [Compound E1068, N-(3-methoxy-4-(pyridin-4-yl)phenyl)-2-(2-methoxyphenyl)acetamide]",108,–,–
"O=C(Cc1ccccc1C(F)(F)F)Nc1ccc(-c2cnco2)c(Cl)c1 [Compound E0147, N-(3-chloro-4-(oxazol-5-yl)phenyl)-2-(2-(trifluoromethyl)phenyl)acetamide]",142,142,42
"O=C(Cc1ccccc1)Nc1ccc(-c2cnco2)c(Cl)c1 [Compound E1021, N-(3-chloro-4-(oxazol-5-yl)phenyl)-2-phenylacetamide]",149,149,49
"COc1cc(NC(=O)Cc2cc(F)ccc2Cl)ccc1-c1ccncc1 [Compound E1062, 2-(2-chloro-5-fluorophenyl)-N-(3-methoxy-4-(pyridin-4-yl)phenyl)acetamide]",134,–,–
"O=C(Cc1cccc(Br)c1)Nc1ccc(-c2cnco2)c(Cl)c1 [Compound E0148, 2-(3-bromophenyl)-N-(3-chloro-4-(oxazol-5-yl)phenyl)acetamide]",143,143,43
"O=C(Cc1ccccc1OC(F)F)Nc1ccc(-c2cnco2)c(F)c1 [Compound E1028, 2-(2-(difluoromethoxy)phenyl)-N-(3-fluoro-4-(oxazol-5-yl)phenyl)acetamide]",119,119,–
COc1cc(NC(=O)Cc2ccccc2OC(F)F)ccc1-c1ccncc1 [Compound E1073],121,–,–
"COc1cccc(CC(=O)Nc2ccc(-c3ccncc3)c(OC)c2)c1 [Compound E1072, N-(3-methoxy-4-(pyridin-4-yl)phenyl)-2-(3-methoxyphenyl)acetamide]",140,–,40
"O=C(Cc1ccc(Cl)cc1)Nc1ccc(-c2cnco2)c(F)c1 [Compound E1039, 2-(4-chlorophenyl)-N-(3-fluoro-4-(oxazol-5-yl)phenyl)acetamide]",107,107,–
"COc1cc(NC(=O)Cc2cccc(C(F)(F)F)c2)ccc1-c1ccncc1 [Compound E1070, N-(3-methoxy-4-(pyridin-4-yl)phenyl)-2-(3-(trifluoromethyl)phenyl)acetamide]",106,–,–
"COc1cc(NC(=O)Cc2ccccc2Cl)ccc1-c1ccncc1 [Compound E0027, 2-(2-chlorophenyl)-N-(3-methoxy-4-(pyridin-4-yl)phenyl)acetamide]",148,–,48
"O=C(Cc1cc(F)ccc1Cl)Nc1ccc(-c2cnco2)c(F)c1 [Compound E1030, 2-(2-chloro-5-fluorophenyl)-N-(3-fluoro-4-(oxazol-5-yl)phenyl)acetamide]",133,133,–
"COc1ccccc1CC(=O)Nc1ccc(-c2cnco2)c(Cl)c1 [Compound E1024, N-(3-chloro-4-(oxazol-5-yl)phenyl)-2-(2-methoxyphenyl)acetamide]",128,128,–
"O=C(Cc1ccccc1Cl)Nc1ccc(-c2cnco2)c(Cl)c1 [Compound E1022, N-(3-chloro-4-(oxazol-5-yl)phenyl)-2-(2-chlorophenyl)acetamide]",158,158,58
"O=C(Cc1cc(F)ccc1Cl)Nc1ccc(-c2cnco2)c(Cl)c1 [Compound E1017, N-(3-chloro-4-(oxazol-5-yl)phenyl)-2-(2-chloro-5-fluorophenyl)acetamide]",121,121,–
"O=C(Cc1cccc(OC(F)F)c1)Nc1ccc(-c2cnco2)c(F)c1 [Compound E1027, 2-(3-(difluoromethoxy)phenyl)-N-(3-fluoro-4-(oxazol-5-yl)phenyl)acetamide]",120,120,–
"COc1cc(NC(=O)Cc2ccccc2C(F)(F)F)ccc1-c1ccncc1 [Compound E1071, N-(3-methoxy-4-(pyridin-4-yl)phenyl)-2-(2-(trifluoromethyl)phenyl)acetamide]",113,–,–
"O=C(Cc1ccccc1)Nc1ccc(-c2cnco2)c(F)c1 [Compound E1031, N-(3-fluoro-4-(oxazol-5-yl)phenyl)-2-phenylacetamide]",123,123,–
"COc1cc(NC(=O)Cc2cccc(OC(F)F)c2)ccc1-c1ccncc1 [Compound E1066, 2-(3-(difluoromethoxy)phenyl)-N-(3-methoxy-4-(pyridin-4-yl)phenyl)acetamide]",108,–,–
"O=C(Cc1ccccc1Cl)Nc1ccc(-c2cnco2)c(F)c1 [Compound E1032, 2-(2-chlorophenyl)-N-(3-fluoro-4-(oxazol-5-yl)phenyl)acetamide]",137,137,–
"COc1ccccc1CC(=O)Nc1ccc(-c2cnco2)c(F)c1 [Compound E1025, N-(3-fluoro-4-(oxazol-5-yl)phenyl)-2-(2-methoxyphenyl)acetamide]",106,106,–
"O=C(Cc1ccccc1C(F)(F)F)Nc1ccc(-c2cnco2)c(F)c1 [Compound E1051, N-(3-fluoro-4-(oxazol-5-yl)phenyl)-2-(2-(trifluoromethyl)phenyl)acetamide]",118,118,–
"O=C(Cc1ccc(Cl)cc1)Nc1ccc(-c2cnco2)c(Cl)c1 [Compound E1019, N-(3-chloro-4-(oxazol-5-yl)phenyl)-2-(4-chlorophenyl)acetamide]",133,133,–
"O=C(Cc1cccc(OC(F)F)c1)Nc1ccc(-c2cnco2)c(Cl)c1 [Compound E1026, N-(3-chloro-4-(oxazol-5-yl)phenyl)-2-(3-(difluoromethoxy)phenyl)acetamide]",122,122,–
